Data reported in US10294202B2, “Pyrrolidinones as herbicides” (FMC Corporation, priority 2013, dated 2019).

Assays:
soybean = test: Test C pre-/postemergence herbicide test; format: in vivo, Glycine max
Method in brief: (§1)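 Greenhouse pots; formulation = non-phytotoxic solvent mix + surfactant. PRE onto seeds in loam:sand; POST at 1–4 leaves (2–18 cm) in peat moss/vermiculite medium. Read-out: visual % control vs untreated, day 13–15.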

ragweed = test: Test C pre-/postemergence herbicide test; format: in vivo, Ambrosia elatior
Method in brief: as §1

wheat = test: Test A pre-/postemergence herbicide test; format: in vivo, Triticum aestivum
Method in brief: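 Greenhouse pot test with pre- and postemergence application of surfactant-containing solvent formulations. Postemergence plants were 2–10 cm, one- to two-leaf stage. Response scored visually after ~10 days, 0 (no effect) to 100 (complete control).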

oat, wild = test: Test C pre-/postemergence herbicide test; format: in vivo, Avena fatua; details: Postemergence
Method in brief: as §1

crabgrass, large = test: Test C pre-/postemergence herbicide test; format: in vivo, Digitaria sanguinalis
Method in brief: as §1

waterhemp = test: Test C pre-/postemergence herbicide test; format: in vivo, Amaranthus rudis
Method in brief: as §1

ryegrass, Italian = test: Test C pre-/postemergence herbicide test; format: in vivo, Lolium multiflorum
Method in brief: as §1

johnsongrass = test: Test C pre-/postemergence herbicide test; format: in vivo, Sorghum halepense
Method in brief: as §1

oilseed rape = test: Test C pre-/postemergence herbicide test; format: in vivo, Brassica napus
Method in brief: as §1

blackgrass = test: Test C pre-/postemergence herbicide test; format: in vivo, Alopecurus myosuroides
Method in brief: as §1

corn = test: Test C pre-/postemergence herbicide test; format: in vivo, Zea mays
Method in brief: as §1

galium = test: Test C pre-/postemergence herbicide test; format: in vivo, Galium aparine
Method in brief: as §1

[1] = Postemergence, 31 g ai/ha, scale 0 (no effect) to 100 (complete control)
[2] = Postemergence, 62 g ai/ha, scale 0 to 100 (0 no effect, 100 complete control)
[3] = Postemergence, 125 g ai/ha, scale 0 to 100 (0 no effect, 100 complete control)
[4] = Postemergence, 250 g ai/ha, scale 0 to 100 (0 no effect, 100 complete control)
[5] = Preemergence, 31 g ai/ha, scale 0 to 100, 0 is no effect and 100 is complete control
[6] = Preemergence, 62 g ai/ha, scale 0 to 100
[7] = Preemergence, 125 g ai/ha, scale 0 to 100 (0 no effect, 100 complete control)
[8] = 31 g ai/ha, scale 0 (no effect) to 100 (complete control)
[9] = 62 g ai/ha, scale 0 to 100 (0 no effect, 100 complete control)
[10] = 125 g ai/ha, scale 0 to 100 (0 no effect, 100 complete control)
[11] = 250 g ai/ha, scale 0 to 100 (0 no effect, 100 complete control)

SMILES: O=C1NCC(c2ccc(F)c(F)c2)C1C(=O)Nc1cccc(F)c1F (racemic) [Compound 101]
- Plant response rating, Soybean (soybean; [1]): 0
- Plant response rating, Soybean (soybean; [2]): 0
- Plant response rating, Soybean (soybean; [3]): 5
- Plant response rating, Soybean (soybean; [4]): 5
- Soybean plant response rating (soybean; [5]): 0
- Plant response rating, Soybean (soybean; [6]): 0
- Plant response rating, Soybean (soybean; [7]): 0
- Plant response rating (scale of 0 to 100), Soybean (soybean; Preemergence, 250 g ai/ha): 10
- Plant response rating, Ragweed (ragweed; [1]): 0
- Plant response rating, Ragweed (ragweed; [2]): 0
- Plant response rating, Ragweed (ragweed; [3]): 5
- Plant response rating, Ragweed (ragweed; [4]): 45
- Ragweed plant response rating (ragweed; [5]): 15
- Plant response rating, Ragweed (ragweed; [6]): 0
- Plant response rating, Ragweed (ragweed; [7]): 5
- Plant response rating (scale of 0 to 100), Ragweed (ragweed; Preemergence, 250 g ai/ha): 5
- Plant response rating, Wheat (wheat; Postemergence, 125 g ai/ha, 0 to 100 scale, 0 no effect, 100 complete control): 50
- Plant response rating, Wheat (wheat; Postemergence, 500 g ai/ha, 0 to 100 scale (0 no effect, 100 complete control)): 60
- Wheat plant response rating (wheat; Preemergence, 125 g ai/ha, visual rating on 0 to 100 scale (0 no effect, 100 complete control)): 60
- Plant response rating, Wheat (wheat; preemergence, 500 g ai/ha, 0 to 100 scale): 70
- Plant response rating, Oat, Wild (oat, wild; [8]): 0
- Plant response rating, Oat, Wild (oat, wild; [9]): 0
- Plant response rating, Oat, Wild (oat, wild; [10]): 0
- Plant response rating, Oat, Wild (oat, wild; [11]): 0
- Plant response rating, Crabgrass, Large (crabgrass, large; [1]): 25
- Plant response rating, Crabgrass, Large (crabgrass, large; [2]): 50
- Plant response rating, Crabgrass, Large (crabgrass, large; [3]): 80
- Plant response rating, Crabgrass, Large (crabgrass, large; [4]): 85
- Crabgrass, Large plant response rating (crabgrass, large; [5]): 95
- Plant response rating, Crabgrass, Large (crabgrass, large; [6]): 98
- Plant response rating, Crabgrass, Large (crabgrass, large; [7]): 98
- Plant response rating (scale of 0 to 100), Crabgrass, Large (crabgrass, large; Preemergence, 250 g ai/ha): 100
- Plant response rating, Waterhemp (waterhemp; [1]): 0
- Plant response rating, Waterhemp (waterhemp; [2]): 5
- Plant response rating, Waterhemp (waterhemp; [3]): 20
- Plant response rating, Waterhemp (waterhemp; [4]): 35
- Waterhemp plant response rating (waterhemp; [5]): 50
- Plant response rating, Waterhemp (waterhemp; [6]): 70
- Plant response rating, Waterhemp (waterhemp; [7]): 50
- Plant response rating (scale of 0 to 100), Waterhemp (waterhemp; Preemergence, 250 g ai/ha): 85
- Plant response rating, Ryegrass, Italian (ryegrass, Italian; [1]): 0
- Plant response rating, Ryegrass, Italian (ryegrass, Italian; [2]): 0
- Plant response rating, Ryegrass, Italian (ryegrass, Italian; [3]): 0
- Plant response rating, Ryegrass, Italian (ryegrass, Italian; [4]): 0
- Ryegrass, Italian plant response rating (ryegrass, Italian; [5]): 30
- Plant response rating, Ryegrass, Italian (ryegrass, Italian; [6]): 15
- Plant response rating, Ryegrass, Italian (ryegrass, Italian; [7]): 30
- Plant response rating (scale of 0 to 100), Ryegrass, Italian (ryegrass, Italian; Preemergence, 250 g ai/ha): 50
- Plant response rating, Johnsongrass (johnsongrass; [1]): 0
- Plant response rating, Johnsongrass (johnsongrass; [2]): 0
- Plant response rating, Johnsongrass (johnsongrass; [3]): 0
- Plant response rating, Johnsongrass (johnsongrass; [4]): 0
- Johnsongrass plant response rating (johnsongrass; [5]): 0
- Plant response rating, Johnsongrass (johnsongrass; [6]): 15
- Plant response rating, Johnsongrass (johnsongrass; [7]): 55
- Plant response rating (scale of 0 to 100), Johnsongrass (johnsongrass; Preemergence, 250 g ai/ha): 75
- Plant response rating, Oilseed Rape (oilseed rape; [1]): 5
- Plant response rating, Oilseed Rape (oilseed rape; [2]): 10
- Plant response rating, Oilseed Rape (oilseed rape; [3]): 50
- Plant response rating, Oilseed Rape (oilseed rape; [4]): 35
- Oilseed Rape plant response rating (oilseed rape; [5]): 0
- Plant response rating, Oilseed Rape (oilseed rape; [6]): 35
- Plant response rating, Oilseed Rape (oilseed rape; [7]): 80
- Plant response rating (scale of 0 to 100), Oilseed Rape (oilseed rape; Preemergence, 250 g ai/ha): 80
- Plant response rating, Blackgrass (blackgrass; [1]): 0
- Plant response rating, Blackgrass (blackgrass; [2]): 0
- Plant response rating, Blackgrass (blackgrass; [3]): 10
- Plant response rating, Blackgrass (blackgrass; [4]): 5
- Blackgrass plant response rating (blackgrass; [5]): 0
- Plant response rating, Blackgrass (blackgrass; [6]): 50
- Plant response rating, Blackgrass (blackgrass; [7]): 70
- Plant response rating (scale of 0 to 100), Blackgrass (blackgrass; Preemergence, 250 g ai/ha): 90
- Plant response rating, Corn (corn; [1]): 0
- Plant response rating, Corn (corn; [2]): 0
- Plant response rating, Corn (corn; [3]): 0
- Plant response rating, Corn (corn; [4]): 0
- Corn plant response rating (corn; [5]): 0
- Plant response rating, Corn (corn; [6]): 0
- Plant response rating, Corn (corn; [7]): 5
- Plant response rating (scale of 0 to 100), Corn (corn; Preemergence, 250 g ai/ha): 65
- Plant response rating, Galium (galium; [1]): 50
- Plant response rating, Galium (galium; [2]): 50
- Plant response rating, Galium (galium; [3]): 30
- Plant response rating, Galium (galium; [4]): 70
- Galium plant response rating (galium; [5]): 0
- Plant response rating, Galium (galium; [6]): 40
- Plant response rating, Galium (galium; [7]): 90
- Plant response rating (scale of 0 to 100), Galium (galium; Preemergence, 250 g ai/ha): 85

SMILES: Cc1c(F)cccc1NC(=O)C1C(=O)NCC1c1ccc(F)c(F)c1 (racemic) [Compound 106]
- Plant response rating, Soybean (soybean; [1]): 0
- Plant response rating, Soybean (soybean; [2]): 0
- Plant response rating, Soybean (soybean; [3]): 5
- Plant response rating, Soybean (soybean; [4]): 5
- Plant response rating, Ragweed (ragweed; [1]): 25
- Plant response rating, Ragweed (ragweed; [2]): 0
- Plant response rating, Ragweed (ragweed; [3]): 0
- Plant response rating, Ragweed (ragweed; [4]): 5
- Plant response rating, Wheat (wheat; Postemergence, 1000 g ai/ha, 0 to 100 scale (0 no effect, 100 complete control)): 30
- Plant response rating, Wheat (wheat; preemergence, 1000 g ai/ha, 0 to 100 scale): 50
- Plant response rating, Oat, Wild (oat, wild; [8]): 0
- Plant response rating, Oat, Wild (oat, wild; [9]): 0
- Plant response rating, Oat, Wild (oat, wild; [10]): 0
- Plant response rating, Oat, Wild (oat, wild; [11]): 0
- Plant response rating, Crabgrass, Large (crabgrass, large; [1]): 10
- Plant response rating, Crabgrass, Large (crabgrass, large; [2]): 10
- Plant response rating, Crabgrass, Large (crabgrass, large; [3]): 25
- Plant response rating, Crabgrass, Large (crabgrass, large; [4]): 60
- Plant response rating, Waterhemp (waterhemp; [1]): 0
- Plant response rating, Waterhemp (waterhemp; [2]): 0
- Plant response rating, Waterhemp (waterhemp; [3]): 10
- Plant response rating, Waterhemp (waterhemp; [4]): 20
- Plant response rating, Ryegrass, Italian (ryegrass, Italian; [1]): 0
- Plant response rating, Ryegrass, Italian (ryegrass, Italian; [2]): 0
- Plant response rating, Ryegrass, Italian (ryegrass, Italian; [3]): 0
- Plant response rating, Ryegrass, Italian (ryegrass, Italian; [4]): 5
- Plant response rating, Johnsongrass (johnsongrass; [1]): 0
- Plant response rating, Johnsongrass (johnsongrass; [2]): 0
- Plant response rating, Johnsongrass (johnsongrass; [3]): 0
- Plant response rating, Johnsongrass (johnsongrass; [4]): 0
- Plant response rating, Oilseed Rape (oilseed rape; [1]): 0
- Plant response rating, Oilseed Rape (oilseed rape; [2]): 0
- Plant response rating, Oilseed Rape (oilseed rape; [3]): 0
- Plant response rating, Oilseed Rape (oilseed rape; [4]): 0
- Plant response rating, Blackgrass (blackgrass; [1]): 0
- Plant response rating, Blackgrass (blackgrass; [2]): 0
- Plant response rating, Blackgrass (blackgrass; [3]): 0
- Plant response rating, Blackgrass (blackgrass; [4]): 0
- Plant response rating, Corn (corn; [1]): 0
- Plant response rating, Corn (corn; [2]): 0
- Plant response rating, Corn (corn; [3]): 0
- Plant response rating, Corn (corn; [4]): 0
- Plant response rating, Galium (galium; [1]): 0
- Plant response rating, Galium (galium; [2]): 0
- Plant response rating, Galium (galium; [3]): 50
- Plant response rating, Galium (galium; [4]): 35
